Source: patent publication US20130266557A1, “METHODS FOR TREATMENT OF A SARCOMA USING AN EPIMETABOLIC SHIFTER (COENZYME Q10)” (priority 2009, published 2013)
“Also recorded” adds a separate entry of the source.

What was measured:
NCIES0808 cells = experiment: Two-dimensional gel analysis with MS identification; assay type: cell-based, human
Procedure: NCIES0808 cells were plated in T25 flasks in experimental conditions similar to those described in the PCR array section. At the end of the treatment time, cells were trypsinized as described in the PCR array section and washed twice in ice cold TBS and snap frozen in liquid nitrogen. Further processing for Western blots was carried out at UMass.
Before isoelectric focusing (IEF), samples were solubilized in 40 mM Tris, 7 M urea, 2 M thiourea, and 1% C7 zwitterionic detergent, reduced with tributylphosphine, and alkylated with 10 mM acrylamide for 90 min at room temperature. After the sample was run through a 10-kDa cutoff Amicon Ultra device with at least 3 volumes of the resuspension buffer, consisting of 7 M urea, 2 M thiourea, and 2% CHAPS to reduce the conductivity of the sample. One hundred micrograms of protein were subjected to IEF on 11-cm pH 3 to 10, pH 4 to 7 or pH 6 to 11 immobilized pH gradient strips (GE, Amersham, USA) to 100,000 volts hour. After IEF, immobilized pH gradient strips were equilibrated in 6 M urea, 2% SDS, 50 mM Tris-acetate buffer, pH 7.0, and 0.01% bromphenol blue and subjected to SDS-polyacrylamide gel electrophoresis on 8 to 16% Tris-HCl Precast Gel, 1 mm (Bio-Rad, USA). The gels were run in duplicate. They were fixed, stained in SYPRO Ruby, 80 mL/gel (Invitrogen, USA) and imaged on Fuji FLA-5100 laser scanner.
Analysis of all gel images was performed using Progenesis Discovery and Pro (Nonlinear Dynamics Inc., Newcastle upon Tyne, UK). After spot detection, matching, background subtraction, normalization, and filtering, data for SYPRO Ruby gel images was exported. […] Manual annotation of each statistically significant spots was performed to assure accurate detection.
Tryptic peptides extracted from respective gel plugs were dried down to a 10 ul volume and acidified with 1-2 ul of 1% TFA. Samples were loaded on an uC18 Zip Tip (Millipore, Corp) after pre-equilibration in 0.1% TFA. After washing with 2×10 ul aliquots of 0.1% TFA, samples were deposited directly onto the MALDI sample target using 1 ul of Matrix solution 15 mg/ml of 2,5 Dihydroxybenzoic Acid (MassPrep DHB, Waters Corp.) in 50:50 Acetonitrile: 0.1% TFA. Samples were allowed to air dry prior to insertion into the mass spectrometer. Analysis were performed on a Kratos Axima QIT (Shimadzu Instruments) matrix-assisted-laser desorption/ionization (MALDI) mass spectrometer. Peptides were analyzed in positive ion mode in mid mass range (700-3000 Da). The instrument was externally calibrated with Angiotensin II (1046.54), P14R (1533.86) and ACTH (18-39) 2465.20 Da. Precursors were selected based on signal intensity at a mass resolution width of 250 for CID fragmentation using Argon as the collision gas. Database searches were performed in house with Mascot (Matrix Sciences, Ltd.) using the Peptide Mass Fingerprint program for MS data and the MS/MS Ion Search program for CID data. All identifications were confirmed or established with CID (MS/MS) data.
NCIES0808 cells treated for 3, 6 and 24 hours were subjected to 2-D gel electrophoreses and were analyzed to identify protein-level changes relative to the control media samples. A comparative analysis of spots across multiple duplicated gels was performed, comparing the “control media sample” against all of the treated samples at both the 50 uM and 100 uM doses. The analysis included the identification of spot changes over the time course due to an increase, decrease, or post-translational modification.

[1] = cited from earlier work
[2] = 24 hours, 50 uM Q10, − = down, 1 = no change
[3] = 24 hours, 100 uM Q10, − = down, 1 = no change

Coenzyme Q10 [CoQ10]
Spot 372, lamin B1: modulation vs control media (NCIES0808 cells; [2]): 1 | Spot 387, SMT 3 suppressor of mif two 3 homolog 2: modulation vs control media (NCIES0808 cells; [2]): 1 | Spot 388, heat shock protein 27 kD: modulation vs control media (NCIES0808 cells; [2]): 1.1 | Spot 396, hnRNP C1/C2: modulation vs control media (NCIES0808 cells; [2]): −1.4 | Spot 436, eukaryotc translation elongation factor 1 beta 2: modulation vs control media (NCIES0808 cells; [2]): 1 | Spot 490, Similar to HSPC-300: modulation vs control media (NCIES0808 cells; [2]): −1.2 | Spot 506, heat shock protein 27 kD: modulation vs control media (NCIES0808 cells; [2]): −1.2 | Spot 511, eukaryotic translation elongation factor 1 delta: modulation vs control media (NCIES0808 cells; [2]): 1 | Spot 524, eukaryotic translation elongation factor 1 delta: modulation vs control media (NCIES0808 cells; [2]): 1 | Spot 532, putative c-myc-responsive isoform 1: modulation vs control media (NCIES0808 cells; [2]): 1 | Spot 557, lamin B1: modulation vs control media (NCIES0808 cells; [2]): 1 | Spot 575, ER lipid raft associated 2 isoform 1; beta actin: modulation vs control media (NCIES0808 cells; [2]): 1.1 | Spot 583, Dismutase Cu/Zn Superoxide: modulation vs control media (NCIES0808 cells; [2]): 1.1 | Spot 622, DNA directed DNA polymerase epislon 3; (canopy 2 homolog): modulation vs control media (NCIES0808 cells; [2]): −1.1 | Spot 646, signal sequence receptor 1 delta: modulation vs control media (NCIES0808 cells; [2]): 1 | Spot 16, alpha 2-HS glycoprotein (Bos Taurus, cow): modulation vs control media (NCIES0808 cells; [3]): 5.9 | Spot 130, ribosomal proten P2; histone H2A: modulation vs control media (NCIES0808 cells; [3]): −4.2 | Spot 180, beta actin: modulation vs control media (NCIES0808 cells; [3]): 3 | Spot 234, hnRNP C1/C2: modulation vs control media (NCIES0808 cells; [3]): −2.6 | Spot 244, heat shock protein 70 kD: modulation vs control media (NCIES0808 cells; [3]): 1.7 | Spot 275, microtubule associated protein: modulation vs control media (NCIES0808 cells; [3]): −1.8 | Spot 311, beta tubulin: modulation vs control media (NCIES0808 cells; [3]): 2.6 | Spot 314, proteasome alpha 3: modulation vs control media (NCIES0808 cells; [3]): −2.2 | Spot 363, ATP dependent helicase II: modulation vs control media (NCIES0808 cells; [3]): 2.1 | Spot 369, eukaryotic translation elongation factor 1 delta: modulation vs control media (NCIES0808 cells; [3]): −2 | Spot 372, lamin B1: modulation vs control media (NCIES0808 cells; [3]): −2.1 | Spot 387, SMT 3 suppressor of mif two 3 homolog 2: modulation vs control media (NCIES0808 cells; [3]): −1.95 | Spot 388, heat shock protein 27 kD: modulation vs control media (NCIES0808 cells; [3]): −1.7 | Spot 396, hnRNP C1/C2: modulation vs control media (NCIES0808 cells; [3]): −2 | Spot 436, eukaryotc translation elongation factor 1 beta 2: modulation vs control media (NCIES0808 cells; [3]): −1.9 | Spot 490, Similar to HSPC-300: modulation vs control media (NCIES0808 cells; [3]): 1.5 | Spot 506, heat shock protein 27 kD: modulation vs control media (NCIES0808 cells; [3]): −1.9 | Spot 511, eukaryotic translation elongation factor 1 delta: modulation vs control media (NCIES0808 cells; [3]): −1.6 | Spot 524, eukaryotic translation elongation factor 1 delta: modulation vs control media (NCIES0808 cells; [3]): −1.7 | Spot 532, putative c-myc-responsive isoform 1: modulation vs control media (NCIES0808 cells; [3]): 1.4 | Spot 557, lamin B1: modulation vs control media (NCIES0808 cells; [3]): −1.6 | Spot 575, ER lipid raft associated 2 isoform 1; beta actin: modulation vs control media (NCIES0808 cells; [3]): 1.6 | Spot 583, Dismutase Cu/Zn Superoxide: modulation vs control media (NCIES0808 cells; [3]): −1.3 | Spot 622, DNA directed DNA polymerase epislon 3; (canopy 2 homolog): modulation vs control media (NCIES0808 cells; [3]): −1.6 | Spot 646, signal sequence receptor 1 delta: modulation vs control media (NCIES0808 cells; [3]): 1.5 | Expression of proteosome subunits PSMA3, PSMB3, PSMB4 and ubiquitin enzymes (ubiquilin) (NCIES0808 cells; Ewing Sarcoma ES0808 cell line treated with CoQ10): sustained increases | Ku70 (ATP dependent helicase II) level (NCIES0808 cells; Ewing Sarcoma ES0808 cell lines treated with CoQ10): decrease | Proteins with observed increase in expression (value = protein), discussion A (NCIES0808 cells; Ewing Sarcoma cell line treated with CoQ10): ribosomal proteins (RPLP2); also recorded: eukaryotic translation initiation factors (EIF3G, EIF4A2); also recorded: eukaryotic translation elongation factors (EEF1B2, EEF1D); also recorded: heat shock proteins (HSP27, HSP60, HSP70); also recorded: dyenin | hnRNP C1/C2 expression (NCIES0808 cells; persisted up to 24 hours): down-regulation | Solubility in water [1]: insoluble in water
